Data from ChEMBL document CHEMBL1671772, “Predicting hERG activities of compounds from their 3D structures: development and evaluation of a global descriptors based QSAR model” (Eur J Med Chem, 2011).

Target: T1, Voltage-gated inwardly rectifying potassium channel KCNH2 (Homo sapiens, UniProt Q12809)
T1 sequence (Q12809 whole entry): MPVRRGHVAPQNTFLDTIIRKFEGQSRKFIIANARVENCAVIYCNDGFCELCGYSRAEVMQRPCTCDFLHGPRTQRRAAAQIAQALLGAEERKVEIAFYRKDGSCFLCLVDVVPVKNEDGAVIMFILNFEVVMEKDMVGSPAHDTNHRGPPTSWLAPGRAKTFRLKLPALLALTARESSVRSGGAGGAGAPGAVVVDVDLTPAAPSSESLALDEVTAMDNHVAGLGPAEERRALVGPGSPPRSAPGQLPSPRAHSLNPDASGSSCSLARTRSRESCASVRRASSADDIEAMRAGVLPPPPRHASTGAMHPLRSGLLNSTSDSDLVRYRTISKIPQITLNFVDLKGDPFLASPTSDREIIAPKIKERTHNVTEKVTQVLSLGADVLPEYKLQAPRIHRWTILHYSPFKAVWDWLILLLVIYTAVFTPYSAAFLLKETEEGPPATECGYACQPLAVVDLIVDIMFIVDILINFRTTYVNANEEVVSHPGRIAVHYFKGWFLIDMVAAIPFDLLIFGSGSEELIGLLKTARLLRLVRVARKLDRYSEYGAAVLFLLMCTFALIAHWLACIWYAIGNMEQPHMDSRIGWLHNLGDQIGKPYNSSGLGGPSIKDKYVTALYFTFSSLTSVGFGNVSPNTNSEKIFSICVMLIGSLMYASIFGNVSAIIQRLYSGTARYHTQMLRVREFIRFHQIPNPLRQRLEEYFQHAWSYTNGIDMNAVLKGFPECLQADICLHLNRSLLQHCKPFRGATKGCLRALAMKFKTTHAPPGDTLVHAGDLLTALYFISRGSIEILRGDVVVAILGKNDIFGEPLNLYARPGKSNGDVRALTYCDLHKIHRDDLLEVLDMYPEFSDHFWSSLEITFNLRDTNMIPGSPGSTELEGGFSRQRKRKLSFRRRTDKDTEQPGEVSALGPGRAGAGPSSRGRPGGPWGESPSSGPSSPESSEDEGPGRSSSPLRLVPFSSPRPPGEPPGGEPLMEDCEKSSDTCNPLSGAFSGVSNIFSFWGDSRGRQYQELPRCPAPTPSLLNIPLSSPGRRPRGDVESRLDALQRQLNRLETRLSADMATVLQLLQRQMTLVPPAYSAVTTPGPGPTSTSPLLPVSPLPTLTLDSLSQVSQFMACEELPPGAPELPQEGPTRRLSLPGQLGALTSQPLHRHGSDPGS

Row | Structure (SMILES) | IC50
1 | COc1ccc(CC(=O)Nc2cc3c(cc2[N+](=O)[O-])OC(C)(C)[C@H](O)[C@H]3NC2CC2)cc1 | 43.7 µM
2 | O=C1NCCN1CCN1CCC(C2CN(c3ccc(F)cc3)c3ccccc32)CC1 (stereo not drawn) | 0.0234 µM
3 | COC(=O)[C@@H]1[C@H]2CC[C@@H](C[C@@H]1O)N2C | 417 µM
4 | COc1ccc(CC(=O)NCc2ccccc2-c2ccccc2C(=O)NCCc2cccnc2)cc1 | 10 µM
5 | CC(=O)NC(=O)C1CCC(C2N=CC(c3cccc(Br)c3)=N2)CC1 (stereo not drawn) | 0.501 µM
6 | CN1C2CCC1C(C(=O)O)C(OC(=O)c1ccccc1)C2 (stereo not drawn) | 3980 µM
7 | CCOP(=O)(Sc1ccccc1)Sc1ccccc1 [EDIFENPHOS] | 50.1 µM
8 | Cc1cn2c(N)c(Cl)cc(C(=O)NCC3CCN(CC(C)C)CC3)c2n1 | 2.57 µM
9 | CC(C)c1cn(-c2ccc(F)cc2)c2ccc(Cl)cc12 | 10 µM
10 | COc1cc(N)c(Cl)cc1C(=O)NC1CCN(Cc2ccccc2)CC1 [CLEBOPRIDE] | 0.603 µM
11 | c1ccc(-c2[nH]c3ccccc3c2C2CC3CCC(C2)N3c2ccccc2)cc1 (stereo not drawn) | 0.0178 µM
12 | COc1ccc(Cc2nccc3cc(OC)c(OC)cc23)cc1OC [PAPAVERINE] | 7.24 µM
13 | CCCN1C[C@H](CSC)C[C@@H]2c3cccc4[nH]cc(c34)C[C@H]21 [PERGOLIDE] | 0.12 µM
14 | CCNCCc1cccc(C(F)(F)F)c1 | 537 µM
15 | CCOc1cc(N)c(Cl)cc1C(=O)NCC1CN(Cc2ccc(F)cc2)CCO1 (stereo not drawn) [MOSAPRIDE] | 4.79 µM
16 | CC(C)(C)N1CCC(c2ccccc2)(c2ccccc2)CC1 [BUDIPINE] | 0.851 µM
17 | O=C1NCCN1CCN1CC=C(c2cn(-c3ccc(F)cc3)c3ccc(Cl)cc23)CC1 | 0.01 µM
18 | COC(=O)C1=CCC2CCC1N2C (stereo in doubt; 41) | 170 µM
19 | CCCCc1oc2ccc(NS(C)(=O)=O)cc2c1C(=O)c1ccc(OCCCN(CCCC)CCCC)cc1 [DRONEDARONE] | 0.316 µM
20 | Cc1cccc(C)c1OCC(C)N (stereo not drawn) [MEXILETINE] | 10 µM
21 | O=C1NCCN1CCN1CCC(c2cn(C3CCCCC3)c3ccc(Cl)cc23)CC1 | 0.138 µM
22 | CC(=O)c1cn(-c2ccc(F)cc2)c2ccc(Cl)cc12 | 10 µM
23 | O=C(NCCN1CCOCC1)c1ccc(Cl)cc1 [MOCLOBEMIDE] | 79.4 µM
24 | O=C(OC1CC2CC3CC(C1)N2CC3O)c1c[nH]c2ccccc12 (stereo not drawn) [MDL-74156] | 12 µM
25 | COC(=O)C1=C(C)NC(C)=C(C(=O)OC(C)C)C1c1cccc2nonc12 (stereo not drawn) [ISRADIPINE] | 50.1 µM
26 | CN(C)CCCn1cc(C2=C(c3c[nH]c4ccccc34)C(=O)NC2=O)c2ccccc21 [GF-109203] | 1 µM
27 | CCC(=O)O[C@@](Cc1ccccc1)(c1ccccc1)[C@@H](C)CN(C)C [LEVOPROPOXYPHENE] | 2.75 µM

Row | Structure (SMILES) | IC50
28 | COc1ccc2cc3[n+](cc2c1OC)CCc1cc2c(cc1-3)OCO2 [BERBERINE] | 66.1 µM
29 | CN1CC(=O)N2[C@H](c3ccc4c(c3)OCO4)c3[nH]c4ccccc4c3C[C@@H]2C1=O | 100 µM
30 | CO[C@@H]1[C@@H](O[C@@H]2O[C@H](C)[C@@H](O[C@H]3C[C@@](C)(O)[C@@H](OC(=O)CC(C)C)[C@H](C)O3)[C@H](N(C)C)[C@H]2O)[C@@H](CC=O)C[C@@H](C)[C@@H](O)/C=C\C=C\C[C@@H](C)OC(=O)C[C@H]1OC(C)=O | 102 µM
31 | CCC(O)(CC)c1cn(-c2ccc(F)cc2)c2ccc(Cl)cc12 | 15.8 µM
32 | COC(=O)C1=CCC2CCC1N2C (stereo in doubt; 21) | 8.91 µM
33 | CC(C(O)c1ccc(O)cc1)N1CCC(Cc2ccccc2)CC1 (stereo not drawn) [IFENPRODIL] | 0.1 µM
34 | CC(C)(C)c1ccc(NC(=O)N2CCN(c3ncccc3Cl)CC2)cc1 | 1 µM
35 | O=C1NCCN1CCN1CCC(c2cn(-c3ccc(F)cc3)c3ccccc23)CC1 | 0.00692 µM
36 | CC(C)(C)c1ccc2c(ccn2-c2ccc(F)cc2)c1 | 10 µM
37 | O=C(OC1Cc2c(O)cc(O)cc2OC1c1cc(O)c(O)c(O)c1)c1cc(O)c(O)c(O)c1 (stereo not drawn) | 6.03 µM
38 | Cc1cccc(C)c1NC(=O)C1CCCCN1C (stereo not drawn) [MEPIVACAINE] | 155 µM
39 | CCC1OC(=O)C(C)C(OC2CC(C)(OC)C(O)C(C)O2)C(C)C(OC2OC(C)CC(N(C)C)C2O)C(C)(O)CC(C)/C(=N/OCOCCOC)C(C)C(O)C1(C)O (stereo not drawn) | 36.3 µM
40 | CCOC(=O)C1C(OC(=O)c2ccccc2)CC2CCC1N2C (stereo not drawn) | 1.2 µM
41 | O=C1CCC(c2ccc(Nc3ccncc3)cc2)=NN1 [SENAZODAN] | 1.05 µM
42 | Fc1ccc(-n2cc(C3CCNCC3)c3cc(Cl)ccc32)cc1 | 0.204 µM
43 | CC1=C2C3OC(=O)C(C)C3C(O)CC2(C)C=CC1=O (stereo not drawn) | 110 µM
44 | CCCC1NC(C)C2C(=O)N=C(c3cc(S(=O)(=O)N4CCN(CC)CC4)ccc3OCC)NN12 (stereo not drawn) | 12.9 µM
45 | Clc1ccccc1C(c1ccccc1)(c1ccccc1)n1ccnc1 [CLOTRIMAZOLE] | 3.02 µM
46 | Cc1cc2c(s1)Nc1ccccc1N=C2N1CCN(C)CC1 [OLANZAPINE] | 0.204 µM
47 | Fc1ccc(-n2cc(C3CCN(CCN4CCN=C4S)CC3)c3ccccc32)cc1 | 0.00617 µM
48 | CCCC(C)C1(CC)C(=O)NC(=O)NC1=O (stereo not drawn) [PENTOBARBITAL] | 132 µM
49 | CCCCN1CCCC[C@H]1C(=O)Nc1c(C)cccc1C [LEVOBUPIVACAINE] | 20.9 µM
50 | CCCCCCCN(CC)CCCCc1ccc([N+](=O)[O-])cc1 | 0.00219 µM
51 | CC(C)(CN1CCC(=C2c3ccc(F)cc3COc3ccccc32)CC1)C(=O)O | 10 µM
52 | NC(=O)N1c2ccccc2C=Cc2ccccc21 [CARBAMAZEPINE] | 105 µM
53 | CCC1OC(=O)C(C)C(OC2CC(C)(OC)C(O)C(C)O2)C(C)C(OC2OC(C)CC(N(C)C)C2O)C(C)(OC)CC(C)C(=O)C(C)C(O)C1(C)O (stereo not drawn) | 33.1 µM

Target: T1, Voltage-gated inwardly rectifying potassium channel KCNH2
Remark: another data set of the same source

Row | Structure (SMILES) | pIC50
54 | CCc1cn(-c2ccc(F)cc2)c2ccc(Cl)cc12 | 2.46
55 | CCCc1cn(-c2ccc(F)cc2)c2ccc(Cl)cc12 | 1.59
56 | CC(O)c1cn(-c2ccc(F)cc2)c2ccc(Cl)cc12 (stereo not drawn) | 2.34
57 | CCC(=O)c1cn(-c2ccc(F)cc2)c2ccc(Cl)cc12 | 2.7
58 | CCC(O)c1cn(-c2ccc(F)cc2)c2ccc(Cl)cc12 (stereo not drawn) | 2.66
